Data from patent publication US6673795B2, “Pyrimidine, pyrazine and triazane derivatives” (Hoffmann-La Roche Inc., priority 2001, dated 2004).

What was measured:
rat mGluR1a receptor = target: T1, rat mGluR1a receptor (Rattus norvegicus, UniProt P23385); test: Binding assay for the characterization of mGluR 1 antagonistic properties (tritiated radioligand displacement); settings: membranes of HEK 293 cells transiently transfected with rat mGluR1a; tritiated 1-ethyl-2-methyl-6-oxo-4-(1,1,2-tritritio-1,2,4,5-tetrahydro-benzo[d]azepin-3-yl)-1,6-dihydro-pyrimidine-5-carbonitrile at 3 nM; 1 hour at room temperature
T1 construct: expressed in transfected cells; host or cells: HEK 293 cells, transient transfection; membrane preparation
T1 sequence (P23385 19-1199): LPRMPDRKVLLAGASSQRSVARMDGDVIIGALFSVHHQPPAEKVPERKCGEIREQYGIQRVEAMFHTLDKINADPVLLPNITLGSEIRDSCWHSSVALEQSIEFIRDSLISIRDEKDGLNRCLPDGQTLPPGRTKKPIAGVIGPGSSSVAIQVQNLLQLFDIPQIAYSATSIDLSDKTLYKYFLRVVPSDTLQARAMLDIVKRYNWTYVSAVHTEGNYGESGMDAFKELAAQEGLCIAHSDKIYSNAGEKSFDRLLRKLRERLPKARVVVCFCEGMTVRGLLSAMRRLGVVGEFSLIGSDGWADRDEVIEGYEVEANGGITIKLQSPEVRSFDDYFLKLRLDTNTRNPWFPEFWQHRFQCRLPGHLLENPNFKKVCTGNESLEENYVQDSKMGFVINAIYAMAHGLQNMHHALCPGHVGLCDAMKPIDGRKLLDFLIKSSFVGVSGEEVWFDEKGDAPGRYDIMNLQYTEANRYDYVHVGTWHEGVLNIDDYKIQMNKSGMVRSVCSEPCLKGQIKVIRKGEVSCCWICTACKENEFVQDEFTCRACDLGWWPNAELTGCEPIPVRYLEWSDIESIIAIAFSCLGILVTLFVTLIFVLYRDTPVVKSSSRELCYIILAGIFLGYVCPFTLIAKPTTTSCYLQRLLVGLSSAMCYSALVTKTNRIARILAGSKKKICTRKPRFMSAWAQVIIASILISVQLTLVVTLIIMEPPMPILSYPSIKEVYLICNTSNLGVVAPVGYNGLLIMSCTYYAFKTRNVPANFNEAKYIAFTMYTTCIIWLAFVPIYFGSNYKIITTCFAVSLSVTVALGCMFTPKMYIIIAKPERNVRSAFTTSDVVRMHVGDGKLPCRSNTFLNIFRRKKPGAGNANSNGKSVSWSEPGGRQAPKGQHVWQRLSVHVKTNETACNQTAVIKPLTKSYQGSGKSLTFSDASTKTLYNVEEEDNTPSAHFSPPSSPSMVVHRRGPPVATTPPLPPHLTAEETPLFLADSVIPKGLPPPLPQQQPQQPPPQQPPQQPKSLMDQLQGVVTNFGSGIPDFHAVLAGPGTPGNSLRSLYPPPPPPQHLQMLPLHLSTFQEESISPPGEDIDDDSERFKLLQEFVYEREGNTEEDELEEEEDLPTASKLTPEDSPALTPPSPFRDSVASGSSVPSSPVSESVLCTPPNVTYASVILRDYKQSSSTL
Method: Binding Assay for the Characterization of mGluR 1 Antagonistic Properties
Binding assay with tritiated 1-ethyl-2-methyl-6-oxo-4-(1,1,2-tritritio-1,2,4,5-tetrahydro-benzo[d]azepin-3-yl)-1,6-dihydro-pyrimidine-5-carbonitrile: HEK 293 cells were transiently transfected with the rat mGluR^1 a receptor. The cells were collected and washed 3 times with PBS. The cell pellets were frozen at −80° C. Membranes were prepared from HEK 293 cells transfected with the rat mGluR^1 a receptor and used in the binding experiments at 10 μg proteins per assay after resuspension in a HEPES NaOH 20 mM, pH=7.4 binding buffer. 1-Ethyl-2-methyl-6-oxo-4-(1,1,2-tritritio-1,2,4,5-tetrahydro-benzo [d]azepin-3-yl)-1,6-dihydro-pyrimidine-5-carbonitrile (S.A 33.4 Ci/mmol) was used at 3 nM final concentration. The incubation with variable concentrations of potential inhibitors was performed for 1 hour at room temperature, the incubate was then filtered onto GF/B glass fiber filter preincubated 1 hour in PEI 0,1% and washed 3 times with 1 ml of cold binding buffer. The radioactivity retained on the unifilter 96 was counted using a Topcount β counter. After correction for non specific binding the data were normalized and the IC50 value calculated using a 4 parameters logistic equation which was fitted to the inhibition curve.

Row | IC50 (rat mGluR1a receptor) [nM] | melting point | Structure (SMILES)
1 | 810 | > 250 °C (dec.) | Cc1nc(N2CCN(c3ccc(F)cc3)CC2)c([N+](=O)[O-])c(=O)[nH]1 [Example 1, 6-[4-(4-Fluoro-phenyl)-piperazin-1-yl]-2-methyl-5-nitro-3H-pyrimidin-4-one]
2 |  | > 250 °C (dec.) | Cc1nc(N2CCC(O)(c3ccccc3)CC2)c([N+](=O)[O-])c(=O)[nH]1 [Example 3, 6-(4-Hydroxy-4-phenyl-piperidin-1-yl)-2-methyl-5-nitro-3H-pyrimidin-4-one]
3 |  | > 250 °C (dec.) | Cc1nc(N2CCN(c3ccccc3)CC2)c([N+](=O)[O-])c(=O)[nH]1 [Example 4, 2-Methyl-5-nitro-6-(4-phenyl-piperazin-1-yl)-3H-pyrimidin-4-one]
4 | 63 | 210 to 213 °C | Cc1nc(N2CCC(c3ccccc3)CC2)c([N+](=O)[O-])c(=O)[nH]1 [Example 5, 2-Methyl-5-nitro-6-(4-phenyl-piperidin-1-yl)-3H-pyrimidin-4-one]
5 |  | 212 to 216 °C (dec.) | Cc1nc(N2CC=C(c3ccccc3)CC2)c([N+](=O)[O-])c(=O)[nH]1 [Example 6, 2-Methyl-5-nitro-6-(4-phenyl-3,6-dihydro-2H-pyridin-1-yl)-3H-pyrimidin-4-one]
6 |  | 218 to 221 °C (dec.) | Cc1nc(N2CCC(c3ccc(F)cc3)CC2)c([N+](=O)[O-])c(=O)[nH]1 [Example 7, 6-[4-(4-Fluoro-phenyl)-piperidin-1-yl]-2-methyl-5-nitro-3H-pyrimidin-4-one]
7 |  | 114 to 117 °C | Cc1nc(OCC(F)(F)F)c([N+](=O)[O-])c(N2CCC(c3ccccc3)CC2)n1 [Example 9-2, 2-methyl-5-nitro-4-(4-phenyl-piperidin-1-yl)-6-(2,2,2-trifluoro-ethoxy)-pyrimidine]
8 | 180 | 116 to 119 °C | CCOc1nc(C)nc(N2CCN(c3ccc(F)cc3)CC2)c1[N+](=O)[O-] [Example 10-2, 4-ethoxy-6-[4-(4-fluoro-phenyl)-piperazin-1-yl]-2-methyl-5-nitro-pyrimidine]
9 |  | 98 to 100 °C | Cc1nc(OC(C)C)c([N+](=O)[O-])c(N2CCN(c3ccc(F)cc3)CC2)n1 [Example 11, 4-[4-(4-Fluoro-phenyl)-piperazin-1-yl]-6-isopropoxy-2-methyl-5-nitro-pyrimidine]
10 |  | 92 to 95 °C | Cc1nc(OCC(F)(F)F)c([N+](=O)[O-])c(N2CCN(c3ccc(F)cc3)CC2)n1 [Example 12-2, 4-[4-(4-fluoro-phenyl)-piperazin-1-yl]-2-methyl-5-nitro-6-(2,2,2-trifluoro-ethoxy)-pyrimidine]
11 |  | 61 to 64 °C | Cc1nc(OCC(F)(F)F)c([N+](=O)[O-])c(N2CCC(c3ccc(F)cc3)CC2)n1 [Example 13-2, 4-[4-(4-fluoro-phenyl)-piperidin-1-yl]-2-methyl-5-nitro-6-(2,2,2-trifluoro-ethoxy)-pyrimidine]
12 |  | 45 to 48 °C | COCCOc1nc(C)nc(N2CCC(c3ccc(F)cc3)CC2)c1[N+](=O)[O-] [Example 14-2, 4-[4-(4-fluoro-phenyl)-piperidin-1-yl]-6-(2-methoxy-ethoxy)-2-methyl-5-nitro-pyrimidine]
13 |  | 213 to 215 °C (dec.) | Cc1nc(N2CCC(c3ccc(F)cc3)CC2)c([N+](=O)[O-])c(=O)n1CC#N [Example 16, {4-[4-(4-Fluoro-phenyl)-piperidin-1-yl]-2-methyl-5-nitro-6-oxo-6H-pyrimidin-1-yl}-acetonitrile]
14 | 280 | 154 to 156 °C | Cc1nc(N2CCC(c3ccc(F)cc3)CC2)c([N+](=O)[O-])c(=O)n1CCCCO [Example 18, 6-[4-(4-Fluoro-phenyl)-piperidin-1-yl]-3-(4-hydroxy-butyl)-2-methyl-5-nitro-3H-pyrimidin-4-one]
15 | 25 |  | N#Cc1c(Cl)nc(NCC2CC2)nc1N1CCN(c2ccccc2)CC1 [Example 63, 4-chloro-2-(cyclopropylmethyl-amino)-6-(4-phenyl-piperazin-1-yl)-pyrimidine-5-carbonitrile]
16 | 140 |  | N#Cc1c(Cl)nc(NCCO)nc1N1CCC(c2ccc(F)cc2)CC1 [Example 68, 4-chloro-6-[4-(4-fluoro-phenyl)-piperidin-1-yl]-2-(2-hydroxy-ethylamino)-pyrimidine-5-carbonitrile]
17 | 210 |  | CSc1nc(N)nc(N2CCN(c3ccc(F)cc3)CC2)c1C#N [Example 70, 2-amino-4-[4-(4-fluoro-phenyl)-piperazin-1-yl]-6-methylsulfanyl-pyrimidine-5-carbonitrile]
18 | 159 |  | CSc1nc(N)nc(N2CCC(c3ccc(F)cc3)CC2)c1C#N [Example 73, 2-Amino-4-[4-(4-fluoro-phenyl)-piperidin-1-yl]-6-methylsulfanyl-pyrimidine-5-carbonitrile]
19 | 17 | 99 to 101 °C | CCc1nc(C#N)c(N2CCN(c3ccccc3)CC2)nc1C [Example 75-1, 5′-ethyl-6′-methyl-4-phenyl-3,4,5,6-tetrahydro-2H-[1,2′]bipyrazinyl-3′-carbonitrile]
20 | 23 |  | CCc1nc(N2CCN(c3ccccc3)CC2)c(C#N)nc1C [Example 75-2, 6′-ethyl-5′-methyl-4-phenyl-3,4,5,6-tetrahydro-2H-[1,2′]bipyrazinyl-3′-carbonitrile]
21 | 25 |  | CCc1c(C)nc(N2CCN(c3ccc(F)cc3)CC2)c(C#N)[n+]1[O-] [Example 79-1, 5′-ethyl-4-(4-fluoro-phenyl)-6′-methyl-4′-oxy-3,4,5,6-tetrahydro-2H-[1,2′]bipyrazinyl-3′-carbonitrile]
22 | 210 |  | CCc1nc(N2CCN(c3ccc(F)cc3)CC2)c(C#N)[n+]([O-])c1C [Example 79-2, 6′-ethyl-4-(4-fluoro-phenyl)-5′-methyl-4′-oxy-3,4,5,6-tetrahydro-2H-[1,2′]bipyrazinyl-3′-carbonitrile]
23 |  | 117 to 120 °C | Cc1nc(N2CCN(c3ccc(F)cc3)CC2)c(C#N)nc1-c1ccccc1 [Example 80, 4-(4-Fluoro-phenyl)-6′-methyl-5′-phenyl-3,4,5,6-tetrahydro-2H-[1,2′]bipyrazinyl-3′-carbonitrile]
24 |  | 155 to 158 °C | N#Cc1ncc(NCCO)nc1N1CCC(c2ccc(F)cc2)CC1 [Example 82, 3-[4-(4-Fluoro-phenyl)-piperidin-1-yl]-5-(2-hydroxy-ethylamino)-pyrazine-2-carbonitrile]
25 | 1000 | 149 to 151 °C | N#Cc1ncc(NCCO)nc1N1CCN(c2ccc(F)cc2)CC1 [Example 83, 4-(4-Fluoro-phenyl)-6′-(2-hydroxy-ethylamino)-3,4,5,6-tetrahydro-2H-[1,2′]bipyrazinyl-3′-carbonitrile]
26 | 660 |  | N#Cc1nnc(NCCO)nc1N1CC=C(c2ccccc2)CC1 [Example 84, 3-(2-Hydroxy-ethylamino)-5-(4-phenyl-3,6-dihydro-2H-pyridin-1-yl)-[1,2,4]triazine-6-carbonitrile]
